# Measured values reported in patent publication US20040024055A1, “Pharmaceutical composition containing the exract of saururus chinensis baill useful as an anticancer agent and a process for the preparation thereof” (priority 2000, published 2004).
# Experiments:
# [1] = test system: NCI-H69; assay: MTT analysis, anticancer activity; assay type: cell-based, human; details: 10 μg/ml sample
# [2] = test system: T-47D; assay: MTT analysis, anticancer activity; assay type: cell-based, human; details: 48 hr
# [3] = test system: KATO-III; assay: MTT analysis, anticancer activity; assay type: cell-based, human; details: MTT, 48 hr
# [4] = test system: HT-29; assay: MTT analysis, anticancer activity; assay type: cell-based, human; details: 10 μg/ml sample
# [5] = test system: SK-N-SH; assay: MTT analysis, anticancer activity; assay type: cell-based, human; details: 48 hr
# [6] = test system: SK-MEL-28; assay: MTT analysis, anticancer activity; assay type: cell-based, human; details: 48 hr
# [7] = Solubility; assay type: physicochemical
# [8] = test system: CPAE; assay: MTT analysis, cytotoxicity against normal cell line; assay type: cell-based, bovine; details: 10 μg/ml sample
# [9] = test system: ME-180; assay: MTT analysis, anticancer activity; assay type: cell-based, human; details: 10 μg/ml sample
# [10] = test system: BT-549; assay: MTT analysis, anticancer activity; assay type: cell-based, human; details: 10 μg/ml sample
# [11] = test system: MCF-7; assay: MTT analysis, anticancer activity; assay type: cell-based, human; details: MTT, 48 hr
# [12] = test system: PC-3 prostate cancer cell line; assay: MTT analysis, anticancer activity; assay type: cell-based, human; details: 48 hr
# Experimental: (§1) To be specific, SK-Hep-1 cell, which is liver cancer cell line, was added to 96-well microplate (Falcon, USA) with the concentration of 3×10^5 cells/ml by 100 μl per well. Each extracted and separated substance dissolved in DMSO was added to the well by 100 μl for the final concentration to be from 50 μg/ml to 0.0244 μg/ml, with 200 μl of final volume. Each cell was cultured for 48 hr in a culture medium of 37° C. and 5% CO2. After cultivation, 20 μl of phosphate buffer solution containing 5 mg/ml of MTT (3-[4,5-dimethylthiazol-2-yl]-2,5-diphenyltetrazoliumbromide, Sigma Co.) reagent was added to each well, and then cultured for 4 hr. After taking 100 μl of supernant from each culture medium, 100 μl of 0.04N hydrochloric acid-isopropanol was added. After letting alone overnight, absorbance was measured at 560 nm using automatic Eliza detector (Molecular Divices Corp., USA). Anticancer activity of each extracted and separated substance was calculated from the absorbance value by Equation 1 and was expressed in terms of cell.
# (§2) Average Existence Rate(%)=(Absorbance of Treated Group)/(Absorbance of Control Group)×100
# [13] = test system: HS-578T; assay: MTT analysis, anticancer activity; assay type: cell-based, human; details: 10 μg/ml sample
# [14] = test system: HT1080; assay: MTT analysis, anticancer activity; assay type: cell-based, human; details: 48 hr
# [15] = test system: HS27; assay: MTT analysis, cytotoxicity against normal cell line; assay type: cell-based, human; details: 10 μg/ml sample
# [16] = test system: HS683; assay: MTT analysis, anticancer activity; assay type: cell-based, human; details: 48 hr
# [17] = test system: A431; assay: MTT analysis, anticancer activity; assay type: cell-based, human; details: 48 hr
# [18] = test system: BT-20; assay: MTT analysis, anticancer activity; assay type: cell-based, human; details: 48 hr
# [19] = test system: T98G; assay: MTT analysis, anticancer activity; assay type: cell-based, human; details: 48 hr
# [20] = test system: Hep-2; assay: MTT analysis, anticancer activity; assay type: cell-based, human; details: MTT, 48 hr
# [21] = test system: NIH-3T3; assay: MTT analysis, cytotoxicity against normal cell line; assay type: cell-based, mouse; details: 10 μg/ml sample
# [22] = test system: HeLa; assay: MTT analysis, anticancer activity; assay type: cell-based, human; details: 48 hr
# [23] = test system: LoVo; assay: MTT analysis, anticancer activity; assay type: cell-based, human; details: 10 μg/ml sample
# [24] = test system: SK-BR-3; assay: MTT analysis, anticancer activity; assay type: cell-based, human; details: 48 hr
# [25] = test system: 293; assay: MTT analysis, cytotoxicity against normal cell line; assay type: cell-based, human; details: 10 μg/ml sample
# [26] = test system: DU-145 prostate cancer cell line; assay: MTT analysis, anticancer activity; assay type: cell-based, human; details: 48 hr
# Experimental: as §1, §2
# [27] = test system: 3T3-L1; assay: MTT analysis, cytotoxicity against normal cell line; assay type: cell-based, mouse; details: 10 μg/ml sample
# [28] = test system: HS-746T; assay: MTT analysis, anticancer activity; assay type: cell-based, human; details: 10 μg/ml sample
# [29] = test system: SK-OV-3; assay: MTT analysis, anticancer activity; assay type: cell-based, human; details: 10 μg/ml sample
# [30] = test system: mouse; details: reported by Rao et al.; cited from earlier work
# [31] = test system: CHO; assay: MTT analysis, cytotoxicity against normal cell line; assay type: cell-based, Chinese hamster; details: 10 μg/ml sample
# [32] = test system: mouse; details: intraperitoneal, Rao et al.; cited from earlier work
# [33] = test system: SK-Hep-1 liver cancer cell line; assay: MTT analysis, anticancer activity; assay type: cell-based, human; details: 48 hr
# Experimental: as §1, §2
structure (smiles),measurement,setting,value
"COc1ccc(C(O)C(C)Oc2ccc(C3OC(c4ccc(OC(C)[C@@H](O)c5ccc(OC)c(OC)c5)c(OC)c4)C(C)C3C)cc2OC)cc1OC (single isomer, unassigned) [HNP-98701C, manassantin A]","Existence rate class, NCI-H69 (in IC50 table)",[1],* (Existence rate larger than 60% for 10 μg/ml sample)
same,IC50 T-47D,[2],0.1249 µg/mL
same,IC50 KATO-III,[3],0.7005 µg/mL
same,"Existence rate class, HT-29 (in IC50 table)",[4],* (Existence rate larger than 60% for 10 μg/ml sample)
same,IC50 SK-N-SH,[5],0.5392 µg/mL
same,IC50 SK-MEL-28,[6],0.0725 µg/mL
same,"Solubility in methanol, ethanol, ethyl acetate, chloroform and dimethylsulfoxide (DMSO)",[7],highly soluble
same,"Solubility in water, acetone, ether and hexane",[7],insoluble
same,"Existence rate class, CPAE (in IC50 table)",[8],* (Existence rate larger than 60% for 10 μg/ml sample)
same,"Existence rate class, ME-180 (in IC50 table)",[9],* (Existence rate larger than 60% for 10 μg/ml sample)
same,"Existence rate class, BT-549 (in IC50 table)",[10],* (Existence rate larger than 60% for 10 μg/ml sample)
same,IC50 MCF-7,[11],>10 µg/mL
same,IC50 PC-3,[12],0.0446 µg/mL
same,"Existence rate class, HS-578T (in IC50 table)",[13],N.E. (Not effective; existence rate larger than 90% for 10 μg/ml sample)
same,IC50 HT1080,[14],0.1753 µg/mL
same,"Existence rate class, HS27 (in IC50 table)",[15],N.E. (Not effective; existence rate larger than 90% for 10 μg/ml sample)
same,IC50 HS683,[16],0.2170 µg/mL
same,IC50 A431,[17],0.3860 µg/mL
same,IC50 BT-20,[18],0.0629 µg/mL
same,IC50 T98G,[19],0.1014 µg/mL
same,IC50 Hep-2,[20],0.0367 µg/mL
same,"Existence rate class, NIH-3T3 (in IC50 table)",[21],N.E. (Not effective; existence rate larger than 90% for 10 μg/ml sample)
same,IC50 HeLa,[22],0.1838 µg/mL
same,"Existence rate class, LoVo (in IC50 table)",[23],* (Existence rate larger than 60% for 10 μg/ml sample)
same,IC50 SK-BR-3,[24],0.0632 µg/mL
same,"Existence rate class, 293 (in IC50 table)",[25],* (Existence rate larger than 60% for 10 μg/ml sample)
same,IC50 DU-145,[26],0.0263 µg/mL
same,"Existence rate class, 3T3-L1 (in IC50 table)",[27],N.E. (Not effective; existence rate larger than 90% for 10 μg/ml sample)
same,"Existence rate class, HS-746T (in IC50 table)",[28],* (Existence rate larger than 60% for 10 μg/ml sample)
same,"Existence rate class, SK-OV-3 (in IC50 table)",[29],N.E. (Not effective; existence rate larger than 90% for 10 μg/ml sample)
same,50% lethal dose (LD50),[30],5.2 mg/kg
same,"Existence rate class, CHO (in IC50 table)",[31],* (Existence rate larger than 60% for 10 μg/ml sample)
same,spontaneous movement 50% reduction concentration (IC50),[32],0.21 ± 0.02 mg/kg
same,IC50 SK-Hep-1,[33],0.0560 µg/mL
